One series relates to A-549 cancer cells. Briefly: MTT-based cell viability assay, A-549. As to conditions: Homo sapiens, A549, 72 h, read-out: A-549 cancer cell toxicity GI50 ± SEM. An excerpt: (§1) MCT1-expressing cells have an extraordinary energy demand and rely on pyruvate metabolism, through either lactate conversion or pyruvate consumption. Inhibition of MCT1 blocks lactate and pyruvate influx into cancer cells, which prevents their processing in the TCA cycle. Over time, the viability of cells exposed to an MCT1 inhibitor is impaired due to pyruvate deprivation, which is compensated by upregulating glucose metabolism—leading to an overconsumption of glucose. To confirm the antiproliferative nature of the indole derivatives, we investigated the compounds toward the MCT1-expressing cell lines A-549[14],[15] and MCF-7.[16] Cancer cell viability was assessed via a 3-(4,5-dimethylthiazol-2-yl)-2,5-diphenyltetrazolium bromide (MTT) assay, as reported earlier.[43]
(§2) To determine the growth inhibitory potential of compounds 17–32, […] of each compound either at concentrations between 1 and 100 μM (A-549 or MCF-7) or at 10 and 50 μM (NIH/3T3) was pipetted into colorless flat-bottom 96-well microplates. Thereafter, 180 μL of a cell suspension (5000 cells/well) of either A-549, MCF-7, or NIH/3T3 cells was added and subsequently kept for 72 h at 37 °C under a 5% CO2-humidified atmosphere. The cell viability as well as the GI50 values were determined as described above.[43]

The test system of another series is MCF-7 cancer cells. Briefly: MTT-based cell viability assay, MCF-7. As to conditions: Homo sapiens, MCF7, 72 h, read-out: MCF-7 cancer cell toxicity GI50 ± SEM.
Description: as §1, §2

The test system of series [1] is ABCB1-expressing A2780/ADR cells. Briefly: MTT-based efficacy (MDR-reversal) assay, 33 in combination with test compound, A2780/ADR. The series is classed as cell-based. As to conditions: for sensitization of ABCB1-expressing A2780/ADR cells against 33: 5 μM; for EC50: from resistance factors of 33 (A2780/ADR vs A2780) against compound concentration, read-out: half-maximal reversal concentration (EC50). How it is done: This sensitization is indicated by a shift of the concentration-effect curve of compound 33 from the right (=high concentrations of 33 needed to induce A2780/ADR cell death) to the left (=lower concentrations of 33 needed to induce A2780/ADR cell death). The concentration-effect curve of compound 33 in combination with 5 μM of either compound 24 or 30 resembles the concentration-effect curve of the sensitive cell line A2780. […] Thus, their potentiating effect with respect to the antiproliferative agent 33 against ABCB1-expressing A2780/ADR cells is due to the inhibition of ABCB1. Therefore, compounds 24 and 30 were dually effective against MCT1- and ABCB1-expressing cells (Table 5).
An MDR-reversal assay[2],[55]−[59] was used to investigate the ability to reverse ABCB1-mediated MDR in A2780/ADR cells toward the cytotoxic ABCB1 substrate 33. […] A dilution series of 33 at concentrations between 0.1 μM and 100 μM was generated, and 20 μL of each concentration was transferred onto the plates (final concentration: 0.01–10 μM). The plates were incubated for 72 h at 37 °C and a 5% CO2-humidified atmosphere, before subsequent processing with the regular MTT assay as described above. The observed effects of compounds 24 and 30 were compared to the effect of 33 alone on A2780/ADR cells as well as its sensitive counterpart A2780 (∼10,000 cells/well).

A further series relates to A-549 cells. Briefly: MTT-based cell viability assay with glucose supplementation. As to conditions: 25 and 50% of original glucose (4.5 g/L) every 12 h over 72 h. How it is done: The glucose deprivation analyses were conducted by adding 4.5 μL of glucose (final concentrations 25% and 50% of the original 4.5 g/L) to each well at an interval of 12 h over a period of 72 h to the 180 μL cell suspension of A-549 cells in a colorless flat-bottom 96-well microplate (SPL Life Sciences, Gyeonggi-do, Republic of Korea). Cell viability was determined as described above.

In series [2] the test system is MCT1-expressing A-549 cells. Briefly: MTT-based efficacy assay, 33 in combination with test compound, A-549. The series is classed as cell-based. As to conditions: for factor of sensitization of A-549 cells against 33: shift of concentration-effect curve of 33; for Increase Susceptibility toward 33 (Factor): supplement csv. How it is done:
MCT1 inhibition anticipates challenging cancer cell energy supply and, thus, increases the efficacy of anticancer agents.
For this purpose, 10 μL of compounds 24 or 30 (50 nM, 100 nM, or 500 nM) was transferred onto a colorless flat-bottom 96-well microplate and complemented with 180 μL of a cell suspension containing either approximately 5,000 A-549 cells. A dilution series of compound 33 at concentrations between 50 nM and 50 μM was generated, and 10 μL of each concentration was transferred onto the plate. The observed effects of compounds 24 and 30 were compared to the effect of compound 33 alone on A-549. The plates were incubated for 72 h at 37 °C and a 5% CO2-humidified atmosphere, before subsequent processing with the regular MTT assay as described above.[43]

Series [3] concerns the target T1, ABCB1 (Homo sapiens, UniProt P08183). In words: daunorubicin assay, ABCB1-expressing A2780/ADR cells. The series is classed as cell-based. As to conditions: A2780/ADR cells; read-out: ABCB1 daunorubicin IC50 ± SEM.
The next series deals with ABCC1 (Homo sapiens, UniProt P33527). Briefly: daunorubicin assay, ABCC1-expressing H69AR cells. As to conditions: screening at 10 μM, inhibitor if 20% (+SEM) reached.
Series [4] deals with T1, ABCB1. Briefly: calcein AM assay, ABCB1-expressing A2780/ADR cells. As to conditions: for IC50: read-out: ABCB1 calcein AM IC50 ± SEM, A2780/ADR cells, 22, 23 constrained to reference inhibitor 34; for ABCB1 inhibition: screening at 10 μM, inhibitor if 20% (+SEM) reached.
Description: (§3) To provide a detailed picture of the pharmacological profile of the indole derivatives, we investigated their modulatory nature on the most prominent ABC transporters ABCB1 (P-glycoprotein, P-gp), ABCC1, (multidrug resistance-associated protein 1, MRP1), and ABCG2 (breast cancer resistance protein, BCRP). Here, we conducted calcein AM (ABCB1),[2],[52]−[59] daunorubicin (ABCC1),[52],[58]−[60] and pheophorbide A (ABCG2)[2],[52]−[60] assays using ABCB1-expressing A2780/ADR, ABCC1-expressing H69AR, and ABCG2-expressing MDCK II BCRP cells, respectively.
(§4) The calcein AM (ABCB1),[2],[52]−[59] daunorubicin (ABCB1[52],[60] and ABCC1[52],[58]−[60]), and pheophorbide A (ABCG2)[2],[52]−[60] assays were conducted as reported earlier. […] The data was processed using GraphPad Prism version 8.4.0, and IC50 values were determined, applying three- or four-parameter logistic equations, whatever was statistically preferred.

T1 sequence (P08183 whole entry): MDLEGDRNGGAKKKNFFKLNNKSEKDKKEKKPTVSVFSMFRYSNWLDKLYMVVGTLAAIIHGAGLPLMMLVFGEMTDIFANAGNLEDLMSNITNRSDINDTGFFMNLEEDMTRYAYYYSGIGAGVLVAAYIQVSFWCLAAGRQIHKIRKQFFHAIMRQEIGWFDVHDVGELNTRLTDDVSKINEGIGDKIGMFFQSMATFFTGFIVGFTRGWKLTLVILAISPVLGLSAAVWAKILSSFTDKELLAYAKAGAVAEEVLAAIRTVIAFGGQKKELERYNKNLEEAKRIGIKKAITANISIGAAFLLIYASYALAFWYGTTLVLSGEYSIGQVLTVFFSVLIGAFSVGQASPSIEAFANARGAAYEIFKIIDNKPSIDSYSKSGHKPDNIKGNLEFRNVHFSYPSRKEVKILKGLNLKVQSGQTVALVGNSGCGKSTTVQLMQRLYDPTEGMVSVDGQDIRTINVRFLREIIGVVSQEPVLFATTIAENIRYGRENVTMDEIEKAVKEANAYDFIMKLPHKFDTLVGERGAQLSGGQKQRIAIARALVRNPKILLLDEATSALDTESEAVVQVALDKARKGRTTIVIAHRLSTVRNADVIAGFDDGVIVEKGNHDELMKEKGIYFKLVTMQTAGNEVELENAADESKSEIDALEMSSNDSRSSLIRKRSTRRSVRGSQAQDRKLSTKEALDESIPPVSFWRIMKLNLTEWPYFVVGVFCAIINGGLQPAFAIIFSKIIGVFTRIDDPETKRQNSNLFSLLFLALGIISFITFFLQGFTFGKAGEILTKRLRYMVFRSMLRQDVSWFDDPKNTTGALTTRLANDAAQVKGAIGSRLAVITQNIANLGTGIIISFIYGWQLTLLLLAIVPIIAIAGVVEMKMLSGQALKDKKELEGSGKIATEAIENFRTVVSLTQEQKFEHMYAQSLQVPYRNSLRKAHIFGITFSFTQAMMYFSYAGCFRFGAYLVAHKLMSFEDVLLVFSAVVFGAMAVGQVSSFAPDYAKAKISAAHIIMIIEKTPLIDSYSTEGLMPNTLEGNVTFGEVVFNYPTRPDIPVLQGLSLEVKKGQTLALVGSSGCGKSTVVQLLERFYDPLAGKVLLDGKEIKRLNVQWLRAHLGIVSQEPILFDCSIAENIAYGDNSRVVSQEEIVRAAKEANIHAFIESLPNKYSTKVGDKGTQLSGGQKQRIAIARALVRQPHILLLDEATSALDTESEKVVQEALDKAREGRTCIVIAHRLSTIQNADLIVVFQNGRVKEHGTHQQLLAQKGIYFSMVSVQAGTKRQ
ABCC1, sequence (P33527 whole entry): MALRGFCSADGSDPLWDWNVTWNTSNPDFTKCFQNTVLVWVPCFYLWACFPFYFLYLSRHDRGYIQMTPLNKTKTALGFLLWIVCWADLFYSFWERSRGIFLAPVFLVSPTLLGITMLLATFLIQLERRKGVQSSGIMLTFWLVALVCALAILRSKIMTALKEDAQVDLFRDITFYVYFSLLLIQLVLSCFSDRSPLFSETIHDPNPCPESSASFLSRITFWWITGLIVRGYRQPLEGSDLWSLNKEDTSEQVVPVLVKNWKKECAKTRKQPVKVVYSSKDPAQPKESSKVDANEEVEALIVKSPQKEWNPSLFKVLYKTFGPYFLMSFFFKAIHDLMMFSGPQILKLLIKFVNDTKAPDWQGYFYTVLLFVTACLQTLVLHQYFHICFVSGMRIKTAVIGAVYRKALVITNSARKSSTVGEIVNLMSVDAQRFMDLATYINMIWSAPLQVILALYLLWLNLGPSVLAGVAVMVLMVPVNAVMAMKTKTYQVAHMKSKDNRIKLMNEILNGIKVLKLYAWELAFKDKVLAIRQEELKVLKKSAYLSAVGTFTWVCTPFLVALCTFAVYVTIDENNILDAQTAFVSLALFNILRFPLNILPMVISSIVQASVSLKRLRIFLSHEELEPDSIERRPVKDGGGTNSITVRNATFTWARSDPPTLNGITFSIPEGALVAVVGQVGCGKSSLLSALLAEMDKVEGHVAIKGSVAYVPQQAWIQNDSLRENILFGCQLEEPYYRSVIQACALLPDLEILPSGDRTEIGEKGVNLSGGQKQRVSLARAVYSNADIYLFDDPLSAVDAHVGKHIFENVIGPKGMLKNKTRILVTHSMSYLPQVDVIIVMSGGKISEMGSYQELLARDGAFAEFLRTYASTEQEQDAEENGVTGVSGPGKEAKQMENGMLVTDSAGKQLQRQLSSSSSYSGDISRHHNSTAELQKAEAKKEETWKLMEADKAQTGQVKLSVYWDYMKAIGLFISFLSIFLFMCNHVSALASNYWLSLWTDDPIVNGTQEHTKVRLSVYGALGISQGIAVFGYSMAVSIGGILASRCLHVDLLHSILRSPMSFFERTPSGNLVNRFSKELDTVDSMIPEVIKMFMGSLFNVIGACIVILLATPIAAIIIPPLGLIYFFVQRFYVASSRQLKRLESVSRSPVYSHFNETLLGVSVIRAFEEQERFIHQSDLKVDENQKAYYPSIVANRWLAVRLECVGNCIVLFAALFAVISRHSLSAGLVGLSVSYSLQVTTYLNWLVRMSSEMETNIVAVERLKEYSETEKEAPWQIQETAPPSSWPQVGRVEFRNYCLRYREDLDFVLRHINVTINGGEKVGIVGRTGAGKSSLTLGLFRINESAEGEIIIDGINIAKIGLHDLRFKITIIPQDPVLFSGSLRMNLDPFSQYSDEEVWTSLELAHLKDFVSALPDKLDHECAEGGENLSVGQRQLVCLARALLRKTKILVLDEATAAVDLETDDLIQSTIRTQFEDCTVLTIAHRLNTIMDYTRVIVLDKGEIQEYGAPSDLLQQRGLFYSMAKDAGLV
Description for ABCC1: as §3, §4

Regarding `COC(=O)/C(C#N)=C/c1cn(CC(=O)Nc2ccc(C)cn2)c2ccccc12` [Compound 30, Methyl-2-cyano-3-(1-(2-((5-methylpyridin-2-yl)amino)-2-oxoethyl)-1H-indol-3-yl) Acrylate], the GI50 (commonly the concentration at which growth is held to half of that of the control) in the series on A-549 cancer cells stood at 19.3 ± 0.3 µM. Moreover, the GI50 in the series with MCF-7 cancer cells is 9.12 ± 0.22 µM. For the same molecule, in series [1], the “sensitization of ABCB1-expressing A2780/ADR cells against 33” value is reported as “completely sensitized” and the EC50 is 1.22 ± 0.01 µM. The “effect of glucose supplementation on cell toxicity” value with A-549 cells is listed as “supplementation of glucose prevents cell toxicity”. Further, in series [2], the “factor of sensitization of A-549 cells against 33” value is 2.6 and the “Increase Susceptibility toward 33 (Factor)” value came out at 2.6. Besides, the IC50 – broadly, the point on the concentration scale where inhibition reaches its midpoint – on ABCB1 [3] was 2.77 ± 0.02 µM. Moreover, the ABCC1 inhibition entry at ABCC1 is recorded as “X (Compounds were considered as inhibitors if they reached 20% (+SEM) inhibition compared to the reference inhibitors 33–35; X = fulfilled)”. Besides, at ABCB1 [4], the IC50 is 1.51 ± 0.08 µM and the ABCB1 inhibition result is reported as “X (Compounds were considered as inhibitors if they reached 20% (+SEM) inhibition compared to the reference inhibitors 33–35; X = fulfilled)”.
In the case of `COC(=O)/C(C#N)=C/c1cn(CC(=O)Nc2ccc(OC)cc2)c2ccccc12` [Compound 24, Methyl-2-cyano-3-(1-(2-((4-methoxyphenyl)amino)-2-oxoethyl)-1H-indol-3-yl) Acrylate], the GI50 in the series on A-549 cancer cells amounted to 20 ± 0.6 µM. Moreover, in the series on MCF-7 cancer cells, the GI50 was 15.1 ± 0.4 µM. In series [1], the “sensitization of ABCB1-expressing A2780/ADR cells against 33” value is listed as “completely sensitized” and the EC50 was 0.793 ± 0.039 µM. Moreover, the “effect of glucose supplementation on cell toxicity” value with A-549 cells is recorded as “supplementation of glucose prevents cell toxicity”. Moreover, in series [2], the “factor of sensitization of A-549 cells against 33” value was 2.5 and the “Increase Susceptibility toward 33 (Factor)” value was 2.5. Also, on ABCB1 [3], the IC50 was found to be 1.49 ± 0.05 µM. The ABCC1 inhibition result on ABCC1 is on record as “X (Compounds were considered as inhibitors if they reached 20% (+SEM) inhibition compared to the reference inhibitors 33–35; X = fulfilled)”. For the same molecule, on ABCB1 [4], the IC50 was 0.983 ± 0.135 µM and the ABCB1 inhibition entry is “X (Compounds were considered as inhibitors if they reached 20% (+SEM) inhibition compared to the reference inhibitors 33–35; X = fulfilled)”.

The values above are taken from article PMC9841531, “Indole Derivatives as New Structural Class of Potent and Antiproliferative Inhibitors of Monocarboxylate Transporter 1 (MCT1; SLC16A1)” (Journal of Medicinal Chemistry, 2022).
